Laboratory results from ChEMBL document CHEMBL3792354, “Design, synthesis and evaluation of novel ferulic acid-memoquin hybrids as potential multifunctional agents for the treatment of Alzheimer's disease” (Bioorg Med Chem Lett, 2016).

Assays:
[1] = molecular target: Amyloid-beta precursor protein (Homo sapiens) (UniProt P05067); test: Inhibition of self-induced amyloid beta (1 to 42) aggregation (unknown origin) at 25 uM by Thioflavin T-based fluorometric assay
[2] = molecular target: Acetylcholinesterase (Electrophorus electricus, UniProt O42275); test: Inhibition of Electrophorus electricus AChE pre-incubated for 15 mins before acetylthiocholine chloride substrate addition by Ellman assay
Chain of Acetylcholinesterase (O42275 whole entry): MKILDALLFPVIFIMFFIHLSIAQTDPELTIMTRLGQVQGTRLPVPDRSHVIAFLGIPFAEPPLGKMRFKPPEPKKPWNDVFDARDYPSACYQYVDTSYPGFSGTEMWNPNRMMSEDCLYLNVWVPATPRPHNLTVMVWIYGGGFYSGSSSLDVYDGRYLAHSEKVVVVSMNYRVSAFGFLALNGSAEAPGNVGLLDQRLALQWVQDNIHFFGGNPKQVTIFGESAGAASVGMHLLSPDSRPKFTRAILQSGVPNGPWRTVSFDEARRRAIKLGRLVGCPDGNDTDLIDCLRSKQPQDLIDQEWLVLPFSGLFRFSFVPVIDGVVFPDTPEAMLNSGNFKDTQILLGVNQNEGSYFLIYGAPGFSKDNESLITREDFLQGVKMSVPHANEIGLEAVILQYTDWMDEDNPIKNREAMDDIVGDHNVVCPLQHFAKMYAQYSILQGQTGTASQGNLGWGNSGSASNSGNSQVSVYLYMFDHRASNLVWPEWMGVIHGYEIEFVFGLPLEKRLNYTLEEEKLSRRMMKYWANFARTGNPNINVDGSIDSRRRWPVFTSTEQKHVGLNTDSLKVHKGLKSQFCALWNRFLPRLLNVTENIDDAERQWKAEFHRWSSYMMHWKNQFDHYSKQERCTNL

[3] = molecular target: Cholinesterase (Equus caballus) (UniProt P81908); test: Inhibition of equine serum BuChE at 50 uM pre-incubated for 15 mins before butylthiocholine chloride substrate addition by Ellman assay
Chain of Cholinesterase (Equus caballus) (P81908 whole entry): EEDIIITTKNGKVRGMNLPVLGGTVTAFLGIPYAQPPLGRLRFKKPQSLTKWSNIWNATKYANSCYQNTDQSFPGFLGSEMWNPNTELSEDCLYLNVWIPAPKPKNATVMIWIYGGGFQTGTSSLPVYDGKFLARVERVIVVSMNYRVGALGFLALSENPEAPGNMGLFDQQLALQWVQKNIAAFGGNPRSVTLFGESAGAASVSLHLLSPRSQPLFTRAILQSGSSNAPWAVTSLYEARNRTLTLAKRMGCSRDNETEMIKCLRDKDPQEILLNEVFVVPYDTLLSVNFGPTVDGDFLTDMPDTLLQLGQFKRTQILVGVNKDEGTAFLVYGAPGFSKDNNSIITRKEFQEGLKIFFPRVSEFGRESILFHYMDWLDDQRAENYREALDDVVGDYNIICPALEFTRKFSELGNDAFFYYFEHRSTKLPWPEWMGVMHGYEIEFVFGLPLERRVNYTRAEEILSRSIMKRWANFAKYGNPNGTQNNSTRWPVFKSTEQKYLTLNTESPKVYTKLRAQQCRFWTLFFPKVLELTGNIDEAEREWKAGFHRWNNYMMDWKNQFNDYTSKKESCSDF

[4] = Antioxidant activity assessed as AAPH radical scavenging activity by measuring Trolox equivalent per microM of test compound measured every minute for 90 mins by ORAC-FL assay; format: physicochemical; settings: 1.5 h
[5] = in vitro; settings: PAMPA
Description: Permeability of the compound at 100 ug/ml by PAMPA-BBB assay

[6] = molecular target: Amyloid-beta precursor protein (Homo sapiens) (UniProt P05067); test: Inhibition of self-induced amyloid beta (1 to 42) aggregation (unknown origin) by Thioflavin T-based fluorometric assay
[7] = Toxicity in human SH-SY5Y cells assessed as cell viability at 10 uM incubated for 24 hrs by MTT assay; format: cell-based; settings: read-out: Activity
[8] = tested on: SH-SY5Y; test: Neuroprotective activity against hydrogen peroxide-induced cell injury in human SH-SY5Y cells assessed as cell viability at 1 uM incubated for 3 hrs after H2O2 exposure for 24 hrs by MTT assay; format: functional; settings: read-out: Activity
[9] = molecular target: Amyloid-beta precursor protein (Homo sapiens) (UniProt P05067); test: Inhibition of self-induced amyloid beta (1 to 42) aggregation (unknown origin) at 10 uM by Thioflavin T-based fluorometric assay
[10] = molecular target: Amyloid-beta precursor protein (Homo sapiens) (UniProt P05067); test: Inhibition of self-induced amyloid beta (1 to 42) aggregation (unknown origin) at 50 uM by Thioflavin T-based fluorometric assay
[11] = tested on: SH-SY5Y; test: Neuroprotective activity against hydrogen peroxide-induced cell injury in human SH-SY5Y cells assessed as cell viability incubated for 3 hrs after H2O2 exposure for 24 hrs by MTT assay; format: functional, cell-based
[12] = molecular target: Amyloid-beta precursor protein (Homo sapiens) (UniProt P05067); test: Induction of disaggregation of self-induced amyloid beta (1 to 42) fibril formation (unknown origin) at 25 uM incubated for 24 hrs by Thioflavin T-based fluorometric assay
[13] = tested on: SH-SY5Y; test: Neuroprotective activity against hydrogen peroxide-induced cell injury in human SH-SY5Y cells assessed as cell viability at 10 uM incubated for 3 hrs after H2O2 exposure for 24 hrs by MTT assay; format: functional; settings: read-out: Activity

Chain of Amyloid-beta precursor protein (Homo sapiens) (P05067 whole entry): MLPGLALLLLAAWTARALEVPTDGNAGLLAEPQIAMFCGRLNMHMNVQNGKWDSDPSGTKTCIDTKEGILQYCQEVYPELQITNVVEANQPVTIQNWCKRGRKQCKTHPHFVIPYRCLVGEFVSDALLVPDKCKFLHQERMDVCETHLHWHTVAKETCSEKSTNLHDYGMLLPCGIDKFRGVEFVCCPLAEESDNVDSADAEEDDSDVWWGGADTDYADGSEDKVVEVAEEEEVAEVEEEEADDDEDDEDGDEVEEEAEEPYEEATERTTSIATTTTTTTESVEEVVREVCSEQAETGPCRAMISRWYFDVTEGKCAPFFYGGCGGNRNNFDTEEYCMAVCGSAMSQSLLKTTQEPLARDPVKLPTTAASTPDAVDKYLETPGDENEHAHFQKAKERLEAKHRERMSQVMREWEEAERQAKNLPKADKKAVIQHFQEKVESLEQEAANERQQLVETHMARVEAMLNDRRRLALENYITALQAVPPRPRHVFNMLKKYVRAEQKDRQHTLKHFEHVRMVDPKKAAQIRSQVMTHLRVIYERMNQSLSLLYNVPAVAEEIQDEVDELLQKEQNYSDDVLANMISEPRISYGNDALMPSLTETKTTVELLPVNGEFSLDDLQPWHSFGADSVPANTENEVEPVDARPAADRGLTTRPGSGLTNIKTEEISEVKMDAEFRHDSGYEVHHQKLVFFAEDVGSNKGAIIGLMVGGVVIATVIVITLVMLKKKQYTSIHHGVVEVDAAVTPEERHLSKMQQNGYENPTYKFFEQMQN

`COc1cc(/C=C/C(=O)NCCCN(C)Cc2ccccc2)ccc1O` gave an inhibition [1] of 39.1%, an IC50 [2] of 34.7 µM and an inhibition [3] of less than 5%. The Activity [4] was 1.2 equiv.

`CN1C(C(=O)Nc2ccccn2)=C(O)c2ccccc2S1(=O)=O` [PIROXICAM] gave a Papp at 100 ug/ml [5] of 0.63 ×10⁻⁶ cm/s.

Work on `COc1cc(/C=C/C(=O)O)ccc1O` [FERULATE] yielded an inhibition [1] of 28.3%, an IC50 [2] greater than 100 µM and an inhibition [3] of less than 5%. For the same compound, the Activity [4] was 1.1 equiv.

In the case of `COc1cc(/C=C/C(=O)NCCCCN(C)Cc2ccccc2)ccc1O`, the inhibition [1] is reported as 31.6%, the IC50 [2] is reported as 29.6 µM and the inhibition [3] is reported as less than 5%. The Activity [4] was 1.3 equiv.

For `COc1cc(/C=C/C(=O)NCCCCCCN(C)Cc2ccccc2)ccc1O`, the inhibition [1] was 31.2%, the IC50 [2] was 15.1 µM and the inhibition [3] was less than 5%. The Activity [4] was 1.2 equiv.

`COc1cc(/C=C/C(=O)NCCCCN(C)Cc2ccccc2OC)ccc1O` gave an inhibition [1] of 32.5%, an IC50 [2] of 18 µM and an inhibition [3] of 34.6%. For the same compound, the Activity [4] was 1.2 equiv.

With `CCN(CCCCCCNC(=O)/C=C/c1ccc(O)c(OC)c1)Cc1ccccc1` the inhibition [1] was 37.4%, the IC50 [2] was 8.2 µM and the inhibition [3] was 17.2%. It also gave an Activity [4] of 1.1 equiv.

For `COc1cc(/C=C/C(=O)NCCCCCCN(C)Cc2ccccc2OC)ccc1O`, the inhibition [1] was 36.6%, the IC50 [2] was 8.5 µM and the inhibition [3] was 27.6%. The Activity [4] was 1.3 equiv.

In the case of `CCN(CCCCNC(=O)/C=C/c1ccc(O)c(OC)c1)Cc1ccccc1OC`, the inhibition [1] is reported as 38.3%, the IC50 [2] is reported as 8.6 µM and the inhibition [3] is reported as less than 5%. It also gave an Activity [4] of 1.3 equiv.

`CCN(CCCCNC(=O)/C=C/c1ccc(O)c(OC)c1)Cc1ccccc1` gave an inhibition [1] of 33.8%, an IC50 [2] of 16.5 µM and an inhibition [3] of less than 5%. For the same compound, the Activity [4] was 1.1 equiv.

With `CCN(CCCCCCNC(=O)/C=C/c1ccc(O)c(OC)c1)Cc1ccccc1OC` the inhibition [6] was “Dose-dependent effect”, the Papp at 100 ug/ml [5] was 5.53 ×10⁻⁶ cm/s and the viability at 24 h, 10 µM [7] was 98.3%. For the same compound, the inhibition [1] was 38.1%, the IC50 [2] was 3.2 µM and the viability at 1 µM [8] was 68.6%. For the same compound, the inhibition [9] was 26.8%, the inhibition [3] was 36.2% and the inhibition [10] was 49.3%. For the same compound, the Activity [11] was “Dose-dependent effect”, the Activity [4] was 1.2 equiv and the Activity [12] was 45.5%. It also gave a viability at 10 µM [13] of 88.3%.

`COc1cc(/C=C/C(=O)NCCCN(C)Cc2ccccc2OC)ccc1O` showed an inhibition [1] of 30.8%, an IC50 [2] of 25.1 µM and an inhibition [3] of 15.8%. The Activity [4] was 1.3 equiv.

In the case of `CCN(CCCCCCNC1=CC(=O)C(NCCCCCCN(CC)Cc2ccccc2OC)=CC1=O)Cc1ccccc1OC` [MEMOQUIN], the inhibition [1] is reported as 72.7%, the IC50 [2] is reported as 0.0067 µM and the inhibition [3] is reported as 5.8%.

`CCN(CCCNC(=O)/C=C/c1ccc(O)c(OC)c1)Cc1ccccc1` gave an inhibition [1] of 33.3%, an IC50 [2] of 31.4 µM and an inhibition [3] of less than 5%. It also gave an Activity [4] of 0.9 equiv.

In the case of `COc1cc(/C=C/C(=O)CC(=O)/C=C/c2ccc(O)c(OC)c2)ccc1O`, the Activity [12] is reported as 57.6%.

Work on `CCN(CCCNC(=O)/C=C/c1ccc(O)c(OC)c1)Cc1ccccc1OC` yielded an inhibition [1] of 35.2%, an IC50 [2] of 15.9 µM and an inhibition [3] of 31.4%. It also gave an Activity [4] of 1.1 equiv.

For `CCn1cc(C(=O)O)c(=O)c2cc(F)c(N3CCNC(C)C3)c(F)c21` (stereo not drawn) [LOMEFLOXACIN], the Papp at 100 ug/ml [5] was 0.52 ×10⁻⁶ cm/s.

`CC(=O)[C@H]1CC[C@H]2[C@@H]3CCC4=CC(=O)CC[C@]4(C)[C@H]3CC[C@]12C` [PROGESTERONE] gave a Papp at 100 ug/ml [5] of 15.9 ×10⁻⁶ cm/s.
